In ChEMBL document CHEMBL4251632, “Synthesis and antidepressant-like activity of novel aralkyl piperazine derivatives targeting SSRI/5-HT1A/5-HT7” (Eur J Med Chem, 2018):

Assays:
[1] = test system: Rattus norvegicus; assay: Apparent clearance during terminal phase in Sprague-Dawley rat at 0.5 mg/kg, iv administered as single dose by LC-MS/MS analysis; type: ADME, organism-based; details: in vivo
[2] = Tmax in Sprague-Dawley rat at 0.5 mg/kg, iv administered as single dose by LC-MS/MS analysis; type: ADME, organism-based; details: in vivo
[3] = test system: Rattus norvegicus; assay: Apparent volume of distribution during terminal phase in Sprague-Dawley rat at 0.5 mg/kg, iv administered as single dose by LC-MS/MS analysis; type: ADME, organism-based; details: in vivo
[4] = Tmax in Sprague-Dawley rat at 2 mg/kg, po administered as single dose by LC-MS/MS analysis; type: ADME, organism-based; details: in vivo
[5] = target: Voltage-gated inwardly rectifying potassium channel KCNH2 (Homo sapiens, UniProt Q12809); assay: Inhibition of human ERG expressed in CHO-K1 cells assessed as reduction in tail current amplitude at -80 mV holding potential after 2 mins by path clamp assay; type: cell-based
[6] = AUC (0 to t) in Sprague-Dawley rat at 2 mg/kg, po administered as single dose by LC-MS/MS analysis; type: ADME, organism-based; details: in vivo
[7] = in vitro; details: rat, liver microsomes
Description: Half life in rat liver microsomes at 1 uM in presence of NADPH by LC-MS/MS analysis

[8] = MRT (0 to t) in Sprague-Dawley rat at 0.5 mg/kg, iv administered as single dose by LC-MS/MS analysis; type: ADME, organism-based; details: in vivo
[9] = Plasma concentration in Sprague-Dawley rat at 0.5 mg/kg, iv administered as single dose measured after 15 mins by LC-MS/MS analysis; type: ADME, organism-based
[10] = test system: Mus musculus; assay: Antidepressant-like activity in po dosed mouse assessed as reduction in immobility time administered once daily for 7 days measured for last 4 mins of 6 mins test at 1 hr post last dose by forced swim test; type: functional, organism-based
[11] = Plasma concentration in Sprague-Dawley rat at 0.5 mg/kg, iv administered as single dose measured after 6 hrs by LC-MS/MS analysis; type: ADME, organism-based
[12] = target: 5-hydroxytryptamine receptor 7 (Homo sapiens, UniProt P34969); assay: Displacement of [3H]LSD from recombinant human 5-HT7 receptor expressed in CHO cell membranes at 10 uM after 120 mins by TopCount scintillation counting method relative to control
[13] = test system: Mus musculus; assay: Antidepressant-like activity in mouse assessed as reduction in immobility time at 20 mg/kg/day, po administered once daily for 7 days measured for 5 mins at 1 hr post last dose by tail suspension test relative to control; type: functional; parameters: scale not given: the % may be the effect or the level left
[14] = Apparent clearance during terminal phase in Sprague-Dawley rat at 2 mg/kg, po administered as single dose by LC-MS/MS analysis; type: ADME, organism-based; details: in vivo, read-out: CLz/F (converted)
[15] = Plasma concentration in Sprague-Dawley rat at 2 mg/kg, po administered as single dose measured after 15 mins by LC-MS/MS analysis; type: ADME, organism-based
[16] = Plasma concentration in Sprague-Dawley rat at 0.5 mg/kg, iv administered as single dose measured after 8 hrs by LC-MS/MS analysis; type: ADME, organism-based
[17] = test system: Mus musculus; assay: Antidepressant-like activity in mouse assessed as reduction in immobility time at 10 mg/kg/day, po administered once daily for 7 days measured for 5 mins at 1 hr post last dose by tail suspension test relative to control; type: functional; parameters: scale not given: the % may be the effect or the level left
[18] = target: T1, 5-hydroxytryptamine receptor 1A (Homo sapiens) (UniProt P08908); assay: Displacement of [3H]8-OH-DPAT from recombinant human 5-HT1A receptor expressed in HEK293 cell membranes at 10 uM after 60 mins by TopCount scintillation counting method relative to control
T1 sequence (whole entry): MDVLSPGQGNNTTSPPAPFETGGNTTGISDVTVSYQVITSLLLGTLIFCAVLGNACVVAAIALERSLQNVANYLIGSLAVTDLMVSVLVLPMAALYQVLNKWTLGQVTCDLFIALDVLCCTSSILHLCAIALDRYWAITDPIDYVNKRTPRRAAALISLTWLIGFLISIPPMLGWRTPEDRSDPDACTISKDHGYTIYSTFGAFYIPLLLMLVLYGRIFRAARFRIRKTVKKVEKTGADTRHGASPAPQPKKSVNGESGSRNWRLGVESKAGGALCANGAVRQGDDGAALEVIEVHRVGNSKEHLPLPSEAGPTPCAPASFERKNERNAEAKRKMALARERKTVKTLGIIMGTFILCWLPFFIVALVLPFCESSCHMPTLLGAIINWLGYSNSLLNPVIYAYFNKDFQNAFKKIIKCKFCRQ

[19] = target: Sodium-dependent serotonin transporter (Rattus norvegicus) (UniProt P31652); assay: Inhibition of [3H]serotonin reuptake in rat brain synaptosomes SERT at 10 uM after 15 mins by TopCount scintillation counting method relative to control; type: subcellular
[20] = test system: Mus musculus; assay: Antidepressant-like activity in po dosed mouse assessed as reduction in immobility time administered once daily for 7 days measured for 5 mins at 1 hr post last dose by tail suspension test; type: functional, organism-based
[21] = Plasma concentration in Sprague-Dawley rat at 0.5 mg/kg, iv administered as single dose measured after 1 hr by LC-MS/MS analysis; type: ADME, organism-based
[22] = Apparent volume of distribution during terminal phase in Sprague-Dawley rat at 2 mg/kg, po administered as single dose by LC-MS/MS analysis; type: ADME, organism-based; details: in vivo, read-out: Vz/F
[23] = Oral bioavailability in Sprague-Dawley rat at 2 mg/kg administered as single dose by LC-MS/MS analysis; type: ADME, organism-based; details: in vivo
[24] = AUC (0 to infinity) in Sprague-Dawley rat at 2 mg/kg, po administered as single dose by LC-MS/MS analysis; type: ADME, organism-based; parameters: dose 2 mg/kg, time infinity, route oral; details: in vivo

Sequence of 5-hydroxytryptamine receptor 7 (P34969 whole entry): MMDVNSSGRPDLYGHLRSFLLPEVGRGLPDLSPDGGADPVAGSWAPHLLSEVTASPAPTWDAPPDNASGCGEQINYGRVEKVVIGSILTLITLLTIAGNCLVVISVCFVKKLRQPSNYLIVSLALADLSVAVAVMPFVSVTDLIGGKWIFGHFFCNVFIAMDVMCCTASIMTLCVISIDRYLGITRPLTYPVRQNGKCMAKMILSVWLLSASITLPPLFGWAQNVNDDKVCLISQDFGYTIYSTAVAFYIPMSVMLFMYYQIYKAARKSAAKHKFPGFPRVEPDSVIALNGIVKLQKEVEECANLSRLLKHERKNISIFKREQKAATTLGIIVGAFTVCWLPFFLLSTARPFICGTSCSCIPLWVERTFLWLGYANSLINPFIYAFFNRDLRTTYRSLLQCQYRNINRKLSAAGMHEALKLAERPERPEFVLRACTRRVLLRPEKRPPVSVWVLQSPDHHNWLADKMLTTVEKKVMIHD
Sequence of Sodium-dependent serotonin transporter (Rattus norvegicus) (P31652 whole entry): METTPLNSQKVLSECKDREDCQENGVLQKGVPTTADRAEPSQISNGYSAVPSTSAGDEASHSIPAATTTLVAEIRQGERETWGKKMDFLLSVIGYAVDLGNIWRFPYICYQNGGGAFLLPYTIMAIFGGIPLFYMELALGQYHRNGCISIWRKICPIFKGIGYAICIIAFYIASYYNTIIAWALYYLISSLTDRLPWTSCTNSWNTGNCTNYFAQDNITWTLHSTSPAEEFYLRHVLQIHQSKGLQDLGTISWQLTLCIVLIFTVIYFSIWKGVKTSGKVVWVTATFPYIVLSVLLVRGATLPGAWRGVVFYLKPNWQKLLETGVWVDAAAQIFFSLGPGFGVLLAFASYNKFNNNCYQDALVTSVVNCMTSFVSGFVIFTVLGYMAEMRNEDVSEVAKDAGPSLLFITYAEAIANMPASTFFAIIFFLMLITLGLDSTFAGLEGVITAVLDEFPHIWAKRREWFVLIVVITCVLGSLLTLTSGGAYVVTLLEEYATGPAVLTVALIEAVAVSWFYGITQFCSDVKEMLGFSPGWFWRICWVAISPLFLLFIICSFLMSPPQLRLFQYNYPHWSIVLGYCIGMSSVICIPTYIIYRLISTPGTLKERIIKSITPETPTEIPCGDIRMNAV
Sequence of Voltage-gated inwardly rectifying potassium channel KCNH2 (Q12809 whole entry): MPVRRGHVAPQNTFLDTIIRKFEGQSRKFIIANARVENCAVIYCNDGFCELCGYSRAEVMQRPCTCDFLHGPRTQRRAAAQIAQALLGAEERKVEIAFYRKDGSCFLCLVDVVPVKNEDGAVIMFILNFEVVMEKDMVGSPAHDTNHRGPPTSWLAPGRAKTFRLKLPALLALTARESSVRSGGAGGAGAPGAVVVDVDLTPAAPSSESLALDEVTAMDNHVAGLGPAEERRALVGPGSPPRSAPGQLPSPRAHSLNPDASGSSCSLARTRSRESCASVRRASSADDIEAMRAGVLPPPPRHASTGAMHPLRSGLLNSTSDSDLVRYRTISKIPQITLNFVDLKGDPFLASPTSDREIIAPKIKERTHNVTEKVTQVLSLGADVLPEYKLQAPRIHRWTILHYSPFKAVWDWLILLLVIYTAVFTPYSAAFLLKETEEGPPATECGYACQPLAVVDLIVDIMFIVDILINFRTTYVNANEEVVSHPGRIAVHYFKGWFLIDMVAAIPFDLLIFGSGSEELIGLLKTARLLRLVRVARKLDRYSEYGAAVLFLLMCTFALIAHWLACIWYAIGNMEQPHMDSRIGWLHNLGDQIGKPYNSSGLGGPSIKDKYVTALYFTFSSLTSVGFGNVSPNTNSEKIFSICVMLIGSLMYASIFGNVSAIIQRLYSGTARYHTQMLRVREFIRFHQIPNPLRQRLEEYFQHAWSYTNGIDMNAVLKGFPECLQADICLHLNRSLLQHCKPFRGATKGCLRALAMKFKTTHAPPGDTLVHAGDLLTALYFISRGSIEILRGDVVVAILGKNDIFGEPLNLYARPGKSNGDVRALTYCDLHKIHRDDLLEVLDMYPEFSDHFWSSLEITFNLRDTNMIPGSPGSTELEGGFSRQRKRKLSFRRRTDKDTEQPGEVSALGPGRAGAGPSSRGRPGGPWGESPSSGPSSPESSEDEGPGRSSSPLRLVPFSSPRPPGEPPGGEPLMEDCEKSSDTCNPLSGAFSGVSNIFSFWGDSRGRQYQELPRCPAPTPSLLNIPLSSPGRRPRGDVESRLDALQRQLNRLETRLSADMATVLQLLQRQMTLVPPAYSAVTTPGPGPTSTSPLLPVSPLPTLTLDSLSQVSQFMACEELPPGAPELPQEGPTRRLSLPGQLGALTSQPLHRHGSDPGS

- CLz/F [1]: 1.5 L/h/kg
- Tmax [2]: 6 min
- Vz/F [3]: 7.4 L/kg
- Tmax [4]: 1.7 h
- AUC(0-t) [6]: 0.536 µg·h/mL
- half-life at 1 µM [7]: 0.775 h
- MRT last [8]: 1.9 h
- concentration at […] [9]: 0.149 µg/mL
- concentration at 6 h [11]: 0.0124 µg/mL
- inhibition [12]: > 90%
- CL/F [14]: 2.4 L/h/kg
- concentration at […] [15]: 0.0204 µg/mL
- concentration at 8 h [16]: 0.00884 µg/mL
- inhibition [18]: > 90%
- inhibition [19]: > 90%
- concentration at 1 h [21]: 0.0513 µg/mL
- Vd/F [22]: 17.1 L/kg
- bioavailability [23]: 68.5%
- AUC(0-inf) [24]: 0.898 µg·h/mL
Structure (SMILES): Fc1ccc(N2CCN(CCCc3c[nH]c4ccc(F)cc34)CC2)c(-c2ccccc2)c1
- IC50 [5]: 16.7 µM
- Activity [10]: Dose-dependent effect
- Activity [13]: 20%
- Activity [17]: 18%
- Activity [20]: Dose-dependent effect
